# Patent US20060079439A1, “Elastin prevents occlusion of body vessels by vascular smooth muscle cells” (priority 2002, published 2006)
# “Also recorded” adds a separate entry of the source. Read-outs that look alike come from different tables or passages of the source. *1 amine or outer side, *2 acyl side, *3 side chain or, on linkers, in order; H or OH if unused. Where a SMILES comes first, the peptide text is derived from it. Bridges are numbered along the chain shown (N, C = ends). Roman numbers before positions name the chains, in order. [ ]: non-standard residue; d: D form. Actinocin(9to1) = Cc1c2oc3c(C)ccc(C(=O)[*:1])c3nc-2c(C(=O)[*:2])c(N)c1=O; NMeV = CN[C@H](C(=O)O)C(C)C; Sar = CNCC(=O)O
# B1: tropoelastin: protein encoded by the elastin gene; human amino acid sequence SEQ ID NO: 2; used as recombinant tropoelastin (protein, listed as Homo sapiens)
# chain: MAGLTAAAPRPGVLLLLLSILHPSRPGGVPGAIPGGVPGGVFYPGAGLGALGGGALGPGGKPLKPVPGGLAGAGLGAGLGAFPAVTFPGALVPGGVADAAAAYKAAKAGAGLGGVPGVGGLGVSAGAVVPQPGAGVKPGKVPGVGLPGVYPGGVLPGARFPGVGVLPGVPTGAGVKPKAPGVGGAFAGIPGVGPFGGPQPGVPLGYPIKAPKLPGGYGLPYTTGKLPYGYGPGGVAGAAGKAGYPTGTGVGPQAAAAAAAKAAAKFGAGAAGVLPGVGGAGVPGVPGAIPGIGGIAGVGTPAAAAAAAAAAKAAKYGAAAGLVPGGPGFGPGVVGVPGAGVPGVGVPGAGIPVVPGAGIPGAAVPGVVSPEAAAKAAAKAAKYGARPGVGVGGIPTYGVGAGGFPGFGVGVGGIPGVAGVPSVGGVPGVGGVPGVGISPEAQAAAAAKAAKYGVGTPAAAAAKAAAKAAQFGLVPGVGVAPGVGVAPGVGVAPGVGLAPGVGVAPGVGVAPGVGVAPGIGPGGVAAAAKSAAKVAAKAQLRAAAGLGAGIPGLGVGVGVPGLGVGAGVPGLGVGAGVPGFGAGADEGVRRSLSPELREGDPSSSQHLPSTPSSPRVPGALAAAKAAKYGAAVPGVLGGLGALGGVGIPGGVVGAGPAAAAAAAKAAAKAAQFGLVGAAGLGGLGVGGLGVPGVGGLGGIPPAAAAKAAKYGAAGLGGVLGGAGQFPLGGVAARPGFGLSPIFPGGACLGKACGRKRK
# Assays:
# [1] = test system: Eln −/− vascular smooth muscle cells; conditions: for effect of pretreatment on tropoelastin- or elastin peptide-induced actin stress fiber formation: 100 μM actinomycin D, 10 μg/ml cyclohexamide, 100 ng/ml pertussis toxin or β protomer, 20 μM EDTA, 10 μM genistein; for effect on induction of contractile organization in Eln −/− vsmcs by elastin: pertussis toxin 100 ng/ml, preliminary experiments; for formation of organized actin stress fibers / actin myofilament polymerization: 3 hours, 1 ug/ml tropoelastin, 10 nM elastin peptide or 10 nM control peptide
# [2] = test system: vascular smooth muscle cells; format: cell-based, mouse; conditions: for effect of inhibitor on elastin peptide induced cell migration / effect of inhibitor on migration in response to PDGF: 10 μM genistein, 100 ng/ml pertussis toxin; for effect of inhibitor on elastin peptide induced cell migration: 100 ng/ml β-protomer, 20 μM Y27632; for effect on migration of Eln −/− vsmcs towards elastin: pertussis toxin 100 ng/ml, preliminary experiments; for effect of inhibitor on migration in response to PDGF: 30 ng/ml PDGF
# Protocol: (§1) Instead, we postulated that elastin signals vsmcs to migrate and adhere to the elastic lamellae. To test this hypothesis we used a modified Boyden chamber assay (Li et al., 1998; Raines et al., 1993). This assay system consists of two adjacent chambers separated by a semipermeable membrane. The amount of cells placed in one chamber (upper) that migrate to the other chamber (lower) is measured by counting the number of cells that have passed through to the undersurface of the filter.
# Briefly, chemotaxis was measured using a modified Boyden chamber method. […] Prior to their addition to the upper chamber, vascular smooth muscle cells were incubated with either 20 μM EDTA (inhibitor of integrin receptors), 10 μM genistein (inhibitor of receptor tyrosine kinases), 100 ng/ml pertussis toxin, 100 ng/ml β-protomer, 20 μM Y27632, or the cells were left untreated. […] Cells were added to the upper chamber and incubated for three hours.
# [3] = test system: cAMP levels in Eln −/− vsmcs; format: cell-based, mouse; conditions: for forskolin induced cAMP levels: 10 μM forskolin pretreatment, 1 ug/ml tropoelastin, 10 μM elastin peptide or control peptide
# [4] = test system: RhoA; assay: RhoA activation, Rhotekin bead pull-down and Western blot; format: cell-based, mouse; conditions: for GTP-bound (activated) RhoA: lysates of treated −/− cells
# Description: Briefly, cell lysates from treated or untreated −/− cells were immunoprecipitated using Rhotekin-coated beads which recognize GTP-bound RhoA. […] Rho-γGTP served as a positive control and Rho-GDP served as a negative control.
# [5] = test system: −/− vascular smooth muscle cells; assay: F:G actin ratio, sedimentation assay; format: cell-based, mouse; conditions: for increase in the F:G actin ratio: versus untreated cells
# [6] = test system: α smooth muscle actin and vinculin in elastin −/− vascular smooth muscle cells; assay: Western blot of protein levels; format: cell-based, mouse; conditions: three hours; 1 μg/ml tropoelastin, 10 μM elastin peptide
# Protocol: We performed two experiments to address this model. […] Cells were washed with ice-cold DPBS and lysed in an additional 1 ml of Laemmli sample buffer. Following lysis, cells were collected, boiled, pelleted, and resolved by SDS-PAGE. The resolved samples were transferred to a membrane, blocked with 5% milk/PBST, incubated with either an anti-α smooth muscle actin antibody or an anti-vinculin antibody, and visualized using chemiluminescence.
# [7] = test system: Eln −/− vascular smooth muscle cells; assay: Focal adhesion organization, vinculin immunofluorescence; format: cell-based, mouse; conditions: 3 hours, 1 ug/ml tropoelastin, 10 nM elastin peptide or 10 nM control peptide
# [8] = test system: Eln +/+ vascular smooth muscle cells; conditions: recombinant tropoelastin treatment
# [9] = test system: Eln +/+ vascular smooth muscle cells; assay: Actin stress fiber organization, immunofluorescence scoring; format: cell-based, mouse; conditions: elastin treatment
# [10] = test system: Eln +/+ and Eln −/− vsmcs; conditions: added to the media; 24, 48, and 72 hours
# [11] = test system: COS cells; assay: Modified Boyden chamber chemotaxis assay; format: cell-based
# Description: as §1, with “In Eln −/− arteries, vascular smooth muscle cells accumulated in the subendothelial space and occluded the artery. […] Because the elastic lamellae are highly fenestrated allowing cells to migrate through, it is unlikely that elastin simply forms a physical cage that contains vsmcs. Instead,” for “Instead,”
# [12] = test system: CHO cells; assay: Modified Boyden chamber chemotaxis assay; format: cell-based
# Description: as §1, with “In Eln −/− arteries, vascular smooth muscle cells accumulated in the subendothelial space and occluded the artery. […] Because the elastic lamellae are highly fenestrated allowing cells to migrate through, it is unlikely that elastin simply forms a physical cage that contains vsmcs. Instead,” for “Instead,”
# [13] = test system: Eln +/+ and Eln −/− vsmcs; conditions: trypan blue, end of the experiment (72 hours)
# [14] = test system: GiRK channel (GiRK 1 and GiRK 4) in A2058 cells; assay: GiRK channel activity in transfected A2058 cells; format: cell-based; conditions: A2058 cells transiently transfected with GiRK 1 and GiRK 4
# Description: Briefly, A2058 cells which are known to be responsive to elastin signaling were used in these studies. A2058 cells were transiently transfected with GiRK 1 and GIRK 4 inorder to form functional heteromultimeric GiRK channels. Transfected cells were contacted with either tropoelastin, a peptide containing 7 repeats of the tropoelastin fragment VGVAPG, or a control peptide.
# [15] = listed as recombinant tropoelastin
molecule,measurement,setting,value
"O=C(O)CN(CCN(CC(=O)O)CC(=O)O)CC(=O)O [EDTA, ethylenediamine tetraacetic acid]",effect of pretreatment on tropoelastin- or elastin peptide-induced actin stress fiber formation,[1],not altered
same,effect on induction of contractile organization in Eln −/− vsmcs by elastin,[1],little or no inhibition
same,effect of inhibitor on migration in response to collagen,"[2]; 10 μg/ml collagen type I, 20 μM EDTA",able to block
same,effect of inhibitor on elastin peptide induced cell migration,[2]; 20 μM EDTA,insensitive
same,effect on migration of Eln −/− vsmcs towards elastin,[2],insensitive
C[C@@H](N)[C@H]1CC[C@H](C(=O)Nc2ccncc2)CC1 [Y-27632],effect of pretreatment on tropoelastin- or elastin peptide-induced actin stress fiber formation,[1],significantly decreased
same,effect of inhibitor on elastin peptide induced cell migration,[2]; 20 μM EDTA,does not block
"Cc1c2oc3c(C)ccc(C(=O)N[C@@H]4C(=O)N[C@H](C(C)C)C(=O)N5CCC[C@H]5C(=O)N(C)CC(=O)N(C)[C@@H](C(C)C)C(=O)O[C@@H]4C)c3nc-2c(C(=O)N[C@@H]2C(=O)N[C@H](C(C)C)C(=O)N3CCC[C@H]3C(=O)N(C)CC(=O)N(C)[C@@H](C(C)C)C(=O)O[C@@H]2C)c(N)c1=O [actinomycin D] (I: T[dV]P[Sar][NMeV] / II: T[dV]P[Sar][NMeV]; ester I:1-I:C, II:1-II:C; linker I:N-II:N via Actinocin(9to1))",effect of pretreatment on tropoelastin- or elastin peptide-induced actin stress fiber formation,[1],maintained
C[C@@H]1C[C@@H]([C@H](O)CC2CC(=O)NC(=O)C2)C(=O)[C@@H](C)C1 [cyclohexamide],effect of pretreatment on tropoelastin- or elastin peptide-induced actin stress fiber formation,[1],maintained
O=c1c(-c2ccc(O)cc2)coc2cc(O)cc(O)c12 [genistein],effect of pretreatment on tropoelastin- or elastin peptide-induced actin stress fiber formation,[1],not altered
same,effect of inhibitor on migration in response to PDGF,[2],able to block
same,effect of inhibitor on elastin peptide induced cell migration,[2]; 20 μM EDTA,insensitive
VGVAPG (A bioactive fragment of tropoelastin.) [elastin peptide],formation of organized actin stress fibers / actin myofilament polymerization,[1],induced actin myofilament polymerization
same,dose dependence of the increase of actin stress fibers,"[1]; three hours, 0.2 nM to 20 μM",dose dependent
same,treatment time of maximal effect on actin stress fiber formation,[1]; time course 15 minutes to 24 hours,about 6 hours
same,forskolin induced cAMP levels,[3],decrease
same,GTP-bound (activated) RhoA,[4],significant increase
same,increase in the F:G actin ratio,[5],3 fold
same,protein levels of α smooth muscle actin or vinculin,[6],does not alter
same,organization of focal adhesions (vinculin),[7],induced organization of focal adhesions
same,vascular smooth muscle migration relative to tropoelastin and PDGF,"[2]; 20 nM elastin peptide, three hours",comparable to both tropoelastin and PDGF
cholera toxin [reference compound],cAMP levels,[3],increased
control peptide: control peptide (SEQ ID NO: 4) (VSLSPG; Control random fragment.) [reference compound],formation of organized actin stress fibers / actin myofilament polymerization,[1],did not produce this effect
same,forskolin induced cAMP levels,[3],not
same,increase in the F:G actin ratio,[5],not
pertussis toxin,effect of pretreatment on tropoelastin- or elastin peptide-induced actin stress fiber formation,[1],significantly decreased
same,effect on induction of contractile organization in Eln −/− vsmcs by elastin,[1],sensitive
same,effect on the tropoelastin or elastin peptide effect on forskolin induced cAMP levels,[3],blocked
same,RhoA activation by tropoelastin or elastin peptide after pretreatment,[4]; pretreatment with pertussis toxin,unable to activate RhoA
same,effect of pretreatment on the tropoelastin or elastin peptide effect on the F:G actin ratio,[5]; 100 ng/ml pretreatment,significantly decreased
same,effect of inhibitor on migration in response to PDGF,[2],no impact; also recorded: insensitive
same,effect of inhibitor on elastin peptide induced cell migration,[2]; 20 μM EDTA,blocked
same,effect on migration of Eln −/− vsmcs towards elastin,[2],sensitive
B1,vinculin organization in Eln +/+ vsmcs,[8],does not affect vinculin organization
same,formation of organized actin stress fibers / actin myofilament polymerization,[1],induced actin myofilament polymerization
same,formation of organized actin stress fibers / actin myofilament polymerization,[1]; [15],induces the formation of organized actin stress fibers
same,actin stress fiber organization in Eln +/+ cells,[9]; listed as elastin,no affect
same,actin stress fiber organization in Eln +/+ cells,[9]; [15],does not affect
same,proliferation of Eln −/− and Eln +/+ vsmcs,[10],reduced to similar levels
same,migration of COS cells exposed to elastin,[11],No migration
same,migration of CHO cells exposed to elastin,[12],No migration
same,cell viability,[13],> 98%
same,cAMP levels in the presence of cholera toxin,[3],significantly reduced
same,forskolin induced cAMP levels,[3],decrease
same,increase in cAMP,[3]; elastin treatment alone,3 fold
same,level of cAMP in the presence of pertussis toxin,[3]; pertussis toxin and elastin,raises the level of cAMP
same,GiRK channel activity,[14],activation
same,GTP-bound (activated) RhoA,[4],significant increase
same,increase in the F:G actin ratio,[5],3 fold
same,protein levels of α smooth muscle actin or vinculin,[6],does not alter
same,organization of focal adhesions (vinculin),[7],induced organization of focal adhesions
same,organization of focal adhesions (vinculin),[7]; [15],induces well-defined focal adhesions
same,migration of murine vsmcs to recombinant tropoelastin,[2],migrated aggressively
same,migration without concentration gradient (checkerboard analysis),[2]; 200 ng to 200 ng gradient,minimal migration
same,"amount of migration induced, relative to platelet derived growth factor",[2]; data not shown,equivalent to the standard dose of 30 ng/ml of platelet derived growth factor
same,migration of Eln +/+ vsmcs relative to Eln −/− vsmcs,[2]; exogenous tropoelastin,did not migrate towards exogenous tropoelastin as readily as Eln −/− vsmcs
